Data set [1] has as its system Staphylococcus aureus. Put plainly: Antibacterial activity against Staphylococcus aureus containing DNA gyrase M121K mutations. Format: functional.
Data set [2] concerns the target Voltage-gated inwardly rectifying potassium channel KCNH2 (Homo sapiens, UniProt Q12809). Description: Inhibition of human ERG.
Data set [3] relates to Staphylococcus aureus. Description: Antibacterial activity against Staphylococcus aureus containing DNA gyrase D83N mutations. Format: functional.
A short description of data set [4]: Inhibition of Staphylococcus aureus DNA topoisomerase 4.
Data set [5] in a line: Inhibition of Staphylococcus aureus DNA gyrase.
Data set [6] concerns Staphylococcus aureus. Put plainly: Antibacterial activity against fluoroquinolone-sensitive Staphylococcus aureus 1146. Format: functional.
For data set [7], the system named is Staphylococcus aureus. Put plainly: Antibacterial activity against fluoroquinolone-resistant Staphylococcus aureus 1095. Format: functional.
The test system of data set [8] is Cavia porcellus. Put plainly: fCmax in anesthetized guinea pig model. Format: ADME.
Data set [9] concerns Cavia porcellus. Description: Cardiotoxicity in anesthetized guinea pig model assessed as prolongation of monophasic action potential duration at fCmax level. Format: toxicity.
Data set [10] has as its system Cavia porcellus. Put plainly: Cardiotoxicity in anesthetized guinea pig model assessed as increase in cardiac alternans at fCmax level. Format: toxicity.
Data set [11] has as its system Staphylococcus aureus. Put plainly: Antibacterial activity against Staphylococcus aureus. Format: functional.
Another data set has as its system Streptococcus pyogenes. Put plainly: Antibacterial activity against Streptococcus pyogenes. Format: functional.
The nature of data set [12]: Fraction unbound in mouse plasma. Format: ADME, cell-free.
A short description of data set [13]: Fraction unbound in rat plasma. Format: ADME, cell-free.
Data set [14] can be described thus: Fraction unbound in human plasma. Format: ADME, cell-free.
Data set [15] is described as follows: Clearance in mouse at 10 mg/kg, iv. Format: ADME, organism-based. Conditions: in vivo.
A short description of data set [16]: Volume of distribution at steady state in mouse at 10 mg/kg, iv. Format: ADME, organism-based. Conditions: in vivo, read-out: Vdss.
The nature of data set [17]: Half life in mouse at 10 mg/kg, iv. Format: ADME, organism-based. Conditions: in vivo.
Data set [18] is described as follows: Clearance in rat at 2 mg/kg, iv. Format: ADME, organism-based. Conditions: in vivo.
The nature of data set [19]: Volume of distribution at steady state in rat at 2 mg/kg, iv. Format: ADME, organism-based. Conditions: in vivo, read-out: Vdss.
Data set [20] in a line: Half life in rat at 2 mg/kg, iv. Format: ADME, organism-based. To be noted: in vivo.
Data set [21] relates to Staphylococcus aureus. Put plainly: Antibacterial activity against fluoroquinolone-resistant Staphylococcus aureus infected in mouse neutropenic thigh model assessed as static dose required for bacterial stasis. Format: functional.
Data set [22] can be described thus: Ratio of fAUC in fluoroquinolone-resistant Staphylococcus aureus infected mouse neutropenic thigh model to MIC for fluoroquinolone-resistant Staphylococcus aureus.

As a reminder, the MIC is the least concentration at which growth counts as inhibited. A higher MIC goes with weaker potency. The IC50 is the concentration that inhibits the measured activity by half. A high value points to a need for much substance. As a reminder, the MIC90 is the lowest concentration that inhibits either 90% of growth or 90% of the strains tested, depending on the study. By fraction unbound is commonly meant the share of the substance not bound to proteins or other matrix. For orientation: clearance means the volume of plasma or blood freed of the substance per unit of time. A higher clearance goes with a high capacity for elimination. Broadly, the half-life is the time in which the quantity being followed falls by half. A low value points to rapid decline.

Values after ≈ are worked out from the molar mass of the structure shown.

Voltage-gated inwardly rectifying potassium channel KCNH2, sequence (Q12809 whole entry): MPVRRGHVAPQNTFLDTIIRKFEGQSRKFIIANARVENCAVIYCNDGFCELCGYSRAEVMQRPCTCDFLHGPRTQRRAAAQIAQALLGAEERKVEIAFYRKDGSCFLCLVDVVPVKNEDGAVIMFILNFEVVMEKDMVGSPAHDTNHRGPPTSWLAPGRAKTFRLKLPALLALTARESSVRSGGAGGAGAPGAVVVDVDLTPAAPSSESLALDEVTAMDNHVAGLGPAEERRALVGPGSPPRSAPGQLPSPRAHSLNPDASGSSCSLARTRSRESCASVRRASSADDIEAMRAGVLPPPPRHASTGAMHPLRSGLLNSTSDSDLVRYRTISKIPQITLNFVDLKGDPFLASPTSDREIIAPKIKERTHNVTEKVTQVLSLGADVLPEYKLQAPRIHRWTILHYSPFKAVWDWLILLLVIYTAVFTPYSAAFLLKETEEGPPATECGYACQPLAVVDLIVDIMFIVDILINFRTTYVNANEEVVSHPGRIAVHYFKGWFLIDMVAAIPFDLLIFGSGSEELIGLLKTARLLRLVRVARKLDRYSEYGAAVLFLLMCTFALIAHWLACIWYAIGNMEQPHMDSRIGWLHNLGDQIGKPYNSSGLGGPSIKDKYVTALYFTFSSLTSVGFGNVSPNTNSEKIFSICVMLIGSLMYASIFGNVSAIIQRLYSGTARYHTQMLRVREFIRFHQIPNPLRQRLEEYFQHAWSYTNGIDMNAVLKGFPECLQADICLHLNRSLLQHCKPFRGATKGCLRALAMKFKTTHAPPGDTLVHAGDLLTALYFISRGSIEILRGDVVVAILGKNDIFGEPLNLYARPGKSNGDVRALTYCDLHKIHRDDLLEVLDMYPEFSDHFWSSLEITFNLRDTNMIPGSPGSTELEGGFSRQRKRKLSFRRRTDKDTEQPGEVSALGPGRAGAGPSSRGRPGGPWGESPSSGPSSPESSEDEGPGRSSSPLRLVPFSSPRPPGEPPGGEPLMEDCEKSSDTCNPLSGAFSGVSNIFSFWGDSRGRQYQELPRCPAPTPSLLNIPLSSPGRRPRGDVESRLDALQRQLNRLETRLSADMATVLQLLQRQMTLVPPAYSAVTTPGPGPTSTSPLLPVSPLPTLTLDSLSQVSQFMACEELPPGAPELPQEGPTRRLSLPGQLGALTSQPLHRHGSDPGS

Consider `COc1ccc2ncc(F)c([C@@H](O)CC[C@@H]3CCN(C4CC(c5cc(F)ccc5F)C4)C[C@@H]3C(=O)O)c2c1` (stereo partly drawn), for which the MIC amounted to 2 µg/mL (≈ 3.78 µM) in the data set with Staphylococcus aureus [1], 3.4 µg/mL (≈ 6.43 µM) with Staphylococcus aureus [3], 0.088 µg/mL (≈ 0.166 µM) in the data set on Staphylococcus aureus [6] and 0.11 µg/mL (≈ 0.208 µM) in the data set with Staphylococcus aureus [7]. Moreover, the IC50 amounted to 85.9 µM in data set [2], 5.47 µM in data set [4] and 0.977 µM in data set [5]. The fCmax in the data set with Cavia porcellus [8] turned out to be 27.5 µM. Also, the Activity entry in the data set on Cavia porcellus [9] is “Non-Toxic”; in the data set on Cavia porcellus [10], “Non-Toxic”; with Staphylococcus aureus [21], 79.7 to 82.8 mg/kg/day. Besides, the MIC90 is 0.125 µg/mL (≈ 0.236 µM) in the data set with Staphylococcus aureus [11] and 0.25 to 0.5 µg/mL (≈ 0.473 to 0.946 µM) in the data set with Streptococcus pyogenes. For the same compound, the fraction unbound in [12] worked out at 0.201; in data set [13], 0.197; in data set [14], 0.054. Also, the clearance in data set [15] turned out to be 13.7 mL/min/kg; in data set [18], 30.9 mL/min/kg. For the same compound, the values for the Vd in [16] and in data set [19] were 1.24 L/kg and 1.82 L/kg, respectively. The half-life is 63 min in [17] and 40.8 min in data set [20]. In data set [22], the Ratio amounted to 39.

For the origin of these results see ChEMBL document CHEMBL4033742, “Novel 3-fluoro-6-methoxyquinoline derivatives as inhibitors of bacterial DNA gyrase and topoisomerase IV” (Bioorg Med Chem Lett, 2017).
